# According to patent US20230355597A1, “COMPOUNDS, COMPOSITIONS, AND METHODS FOR THE TREATMENT AND PREVENTION OF AVIAN PATHOGENIC E. COLI (APEC)” (OHIO STATE INNOVATION FOUNDATION, priority 2018, published 2023):
# Like-named read-outs stand apart in the source and are kept apart here. Marks after values point to notes of the source that are not given here.
# Columns and labels:
# APEC O78 [1] = assay type: cell-based, avian pathogenic Escherichia coli (APEC); details: for MBC relative to MIC: APEC O78; for MIC / MBC: APEC O78, M63 media
# APEC O1 = assay type: cell-based, avian pathogenic Escherichia coli (APEC); details: APEC O1, M63 media; MIC/MBC
# APEC O2 = assay type: cell-based, avian pathogenic Escherichia coli (APEC); details: APEC O2, M63 media; MIC/MBC
# APEC O8 = assay type: cell-based, avian pathogenic Escherichia coli (APEC); details: APEC O8, M63 media; MIC/MBC
# APEC O15 = assay type: cell-based, avian pathogenic Escherichia coli (APEC); details: APEC O15, M63 media; MIC/MBC
# APEC O18 = assay type: cell-based, avian pathogenic Escherichia coli (APEC); details: APEC O18, M63 media; MIC/MBC
# APEC O35 = assay type: cell-based, avian pathogenic Escherichia coli (APEC); details: APEC O35, M63 media; MIC/MBC
# APEC O115 = assay type: cell-based, avian pathogenic Escherichia coli (APEC); details: APEC O115, M63 media; MIC/MBC
# APEC O109 = assay type: cell-based, avian pathogenic Escherichia coli (APEC); details: APEC O109, M63 media; MIC/MBC
# APEC O78-53 = assay type: cell-based, avian pathogenic Escherichia coli (APEC); details: APEC O78-53, M63 media; MIC/MBC
# APEC O1-63 = assay type: cell-based, avian pathogenic Escherichia coli (APEC); details: APEC O1-63, M63 media; MIC/MBC
# APEC O2-211 = assay type: cell-based, avian pathogenic Escherichia coli (APEC); details: APEC O2-211, M63 media; MIC/MBC
# [2] = test system: Shiga toxin-producing (STEC) O157 and O26 strains; assay type: cell-based, E. coli; details: 100 µM, M63 media
# [3] = test system: biofilm embedded APEC O78; test: MBEC High-throughput assay; assay type: cell-based, avian pathogenic Escherichia coli (APEC); details: biofilm embedded APEC O78; superscript = multiple of MIC (footnote)
# APEC O78 [4] = test: Confocal microscopy bacterial cytological profiling; assay type: cell-based, avian pathogenic Escherichia coli (APEC); details: 2X MBC
# Method: Confocal and scanning electron microscopy. Confocal microscopy was used for bacterial cytological profiling (BCP) to identify the cellular pathways targeted by SMs as described previously. […] After incubation, treated cultures were centrifuged, washed, and resuspended in 100 μL PBS. […] Cultures were then centrifuged, washed, and resuspended in PBS to 1⁄10th volume of the original cultures.
# APEC O78 [5] = test: Loss of 260/280 nm absorbing materials assay; assay type: cell-based, avian pathogenic Escherichia coli (APEC); details: 2X MBC, 1 h, *P<0.05 vs DMSO; for Absorbance 260: 260 nm absorbing material in supernatant; for Absorbance 280: 280 nm absorbing material in supernatant
# [6] = test system: intracellular APEC O78 in Caco-2 cells; test: Intracellular survival assay (cidal SMs); details: O78, Caco-2, 6 h treatment; superscript = multiple of MIC
# [7] = test system: intracellular APEC O78 in HD11 cells; test: Intracellular survival assay (cidal SMs); details: O78, HD11, 6 h treatment; superscript = multiple of MIC
# [8] = test system: intracellular APEC O78 in THP-1 cells; test: Intracellular survival assay (cidal SMs); details: O78, THP-1, 6 h treatment; superscript = multiple of MIC
# [9] = test system: intracellular APEC O2 in Caco-2 cells; test: Intracellular survival assay (cidal SMs); details: O2, Caco-2, 6 h treatment; superscript = multiple of MIC
# [10] = test system: intracellular APEC O2 in HD11 cells; test: Intracellular survival assay (cidal SMs); details: O2, HD11, 6 h treatment; superscript = multiple of MIC
# [11] = test system: intracellular APEC O2 in THP-1 cells; test: Intracellular survival assay (cidal SMs); details: O2, THP-1, 6 h treatment; superscript = multiple of MIC
# [12] = test system: intracellular APEC O1 in Caco-2 cells; test: Intracellular survival assay (cidal SMs); details: O1, Caco-2, 6 h treatment; superscript = multiple of MIC
# [13] = test system: intracellular APEC O1 in HD11 cells; test: Intracellular survival assay (cidal SMs); details: O1, HD11, 6 h treatment; superscript = multiple of MIC
# [14] = test system: intracellular APEC O1 in THP-1 cells; test: Intracellular survival assay (cidal SMs); details: O1, THP-1, 6 h treatment; superscript = multiple of MIC
# Rif^r APEC O78 = test: In vivo efficacy of growth inhibitors in APEC infected broiler chickens; details: for reduction of average APEC load in internal organs: average of liver, lung and kidney; for reduction of average APEC load in internal organs / reduction of APEC load, Heart / reduction of APEC load, Kidney / reduction of APEC load, Liver / reduction of APEC load, Lung: vs untreated control; for reduction of APEC induced mortality: oral gavage twice a day, 5 days, untreated mortality (58.34%) normalized to 100%; for Body weight gain (BWG): weight of live chickens before necropsy minus weight before treatment
# [15] = cell prints MIC/MBC, listed as 1
structure (smiles),measurement,setting,value
COc1cc(CNCCc2ccc3ccccc3c2)ccc1OCC(O)CN1CCCC1 (stereo not drawn) [SM2],MBC relative to MIC,APEC O78 [1],identical to MIC
same,MIC,APEC O78 [1]; MIC/MBC,100 µM
same,MBC,APEC O78 [1]; cell prints MIC/MBC,100 µM
same,MBC,APEC O1,250 µM
same,MIC,APEC O1,200 µM
same,MBC,APEC O2,250 µM
same,MIC,APEC O2,200 µM
same,MBC,APEC O8,200 µM
same,MIC,APEC O8,100 µM
same,MBC,APEC O15,100 µM
same,MIC,APEC O15,100 µM
same,MBC,APEC O18,200 µM
same,MIC,APEC O18,100 µM
same,MBC,APEC O35,200 µM
same,MIC,APEC O35,100 µM
same,MBC,APEC O115,200 µM
same,MIC,APEC O115,200 µM
same,MBC,APEC O109,200 µM
same,MIC,APEC O109,100 µM
same,MBC,APEC O78-53,200 µM
same,MIC,APEC O78-53,100 µM
same,MBC,APEC O1-63,250 µM
same,MIC,APEC O1-63,200 µM
same,MBC,APEC O2-211,100 µM
same,MIC,APEC O2-211,100 µM
same,activity against STEC O157 and O26 strains,[2],not cidal
same,MBEC,[3],50^b µM
same,"cytological profile (confocal, FM4-64 / SYTO-9)",APEC O78 [4],membrane pore formers
same,Absorbance 260,APEC O78 [5],3.71
same,Absorbance 280,APEC O78 [5],2.86*
same,SMs intracellular APEC clearance concentration,[6],100^a µM
same,SMs intracellular APEC clearance concentration,[7],100^a µM
same,SMs intracellular APEC clearance concentration,[8],100^a µM
same,SMs intracellular APEC clearance concentration,[9],>200 µM
same,SMs intracellular APEC clearance concentration,[10],200^b µM
same,SMs intracellular APEC clearance concentration,[11],100^a µM
same,SMs intracellular APEC clearance concentration,[12],>200 µM
same,SMs intracellular APEC clearance concentration,[13],200b µM
same,SMs intracellular APEC clearance concentration,[14],200^b µM
same,reduction of average APEC load in internal organs,Rif^r APEC O78; heart,1.3 logs
same,cumulative lesions score,"Rif^r APEC O78; liver, heart, lung and air-sacs, untreated 6.2",5.4
same,reduction of APEC induced mortality,Rif^r APEC O78,42.86%
same,"reduction of APEC lesions severity (%), Air-sacs (airsacculitis)",Rif^r APEC O78; untreated control = 100%,17.7%
same,"reduction of APEC lesions severity (%), Liver (perihepatitis)",Rif^r APEC O78; untreated control = 100%,0%
same,"reduction of APEC load, Heart",Rif^r APEC O78,0.8 log CFU/g of tissues
same,"reduction of APEC load, Kidney",Rif^r APEC O78,1.8 log CFU/g of tissues
same,"reduction of APEC load, Liver",Rif^r APEC O78,1.2 log CFU/g of tissues
same,"reduction of APEC load, Lung",Rif^r APEC O78,1.5 log CFU/g of tissues
same,Body weight gain (BWG),Rif^r APEC O78,125.48±34.66^b
COc1ccc(CCN(Cc2cc3c(cc2Cl)OCO3)CC2CCN(C)CC2)cc1 [SM11],MBC relative to MIC,APEC O78 [1],identical to MIC
same,MIC,APEC O78 [1]; MIC/MBC,100 µM
same,MBC,APEC O78 [1]; cell prints MIC/MBC,100 µM
same,MBC,APEC O1,100 µM
same,MIC,APEC O1,100 µM
same,MBC,APEC O2,200 µM
same,MIC,APEC O2,100 µM
same,MBC,APEC O8,200 µM
same,MIC,APEC O8,200 µM
same,MBC,APEC O15,100 µM
same,MIC,APEC O15,100 µM
same,MBC,APEC O18,200 µM
same,MIC,APEC O18,200 µM
same,MBC,APEC O35,200 µM
same,MIC,APEC O35,100 µM
same,MBC,APEC O115,200 µM
same,MIC,APEC O115,200 µM
same,MBC,APEC O109,200 µM
same,MIC,APEC O109,200 µM
same,MBC,APEC O78-53,200 µM
same,MIC,APEC O78-53,100 µM
same,MBC,APEC O1-63,200 µM
same,MIC,APEC O1-63,100 µM
same,MBC,APEC O2-211,100 µM
same,MIC,APEC O2-211,100 µM
same,activity against STEC O157 and O26 strains,[2],not cidal
same,MBEC,[3],400^d µM
same,"cytological profile (confocal, FM4-64 / SYTO-9)",APEC O78 [4],membrane pore formers
same,Absorbance 260,APEC O78 [5],4.00*
same,Absorbance 280,APEC O78 [5],2.89*
same,SMs intracellular APEC clearance concentration,[6],100^a µM
same,SMs intracellular APEC clearance concentration,[7],100^a µM
same,SMs intracellular APEC clearance concentration,[8],100^a µM
same,SMs intracellular APEC clearance concentration,[9],200^b µM
same,SMs intracellular APEC clearance concentration,[10],200^b µM
same,SMs intracellular APEC clearance concentration,[11],100^a µM
same,SMs intracellular APEC clearance concentration,[12],>200 µM
same,SMs intracellular APEC clearance concentration,[13],200^b µM
same,SMs intracellular APEC clearance concentration,[14],>200 µM
CC1CCCN(CCC(=O)c2ccc(Br)cc2)C1.Cl (stereo not drawn) [SM1],MBC relative to MIC,APEC O78 [1],identical to MIC
same,MBC,APEC O78 [1]; cell prints MIC/MBC,200 µM
same,MBC,APEC O78 [1]; [15],200 µM
same,MIC,APEC O78 [1]; [15],200 µM
same,MBC,APEC O1,250 µM
same,MIC,APEC O1,200 µM
same,MBC,APEC O2,200 µM
same,MIC,APEC O2,200 µM
same,MBC,APEC O8,200 µM
same,MIC,APEC O8,200 µM
same,MBC,APEC O15,250 µM
same,MIC,APEC O15,200 µM
same,MBC,APEC O18,200 µM
same,MIC,APEC O18,200 µM
same,MBC,APEC O35,200 µM
same,MIC,APEC O35,200 µM
same,MBC,APEC O115,200 µM
same,MIC,APEC O115,200 µM
same,MBC,APEC O109,200 µM
same,MIC,APEC O109,200 µM
same,MBC,APEC O78-53,200 µM
same,MIC,APEC O78-53,200 µM
same,MBC,APEC O1-63,250 µM
same,MIC,APEC O1-63,200 µM
same,MBC,APEC O2-211,200 µM
same,MIC,APEC O2-211,200 µM
same,activity against STEC O157 and O26 strains,[2],not cidal
same,MBEC,[3],400^d µM
same,"cytological profile (confocal, FM4-64 / SYTO-9)",APEC O78 [4],PG synthesis inhibitors
same,Absorbance 260,APEC O78 [5],4.00*
same,Absorbance 280,APEC O78 [5],3.08*
same,SMs intracellular APEC clearance concentration,[6],200^a µM
same,SMs intracellular APEC clearance concentration,[7],200^a µM
same,SMs intracellular APEC clearance concentration,[8],200^a µM
same,SMs intracellular APEC clearance concentration,[9],>400 µM
same,SMs intracellular APEC clearance concentration,[10],200^a µM
same,SMs intracellular APEC clearance concentration,[11],200^a µM
same,SMs intracellular APEC clearance concentration,[12],>400 µM
same,SMs intracellular APEC clearance concentration,[13],400^b µM
same,SMs intracellular APEC clearance concentration,[14],400^b µM
same,reduction of average APEC load in internal organs,Rif^r APEC O78; heart,either exacerbated or did not reduce
same,reduction of APEC induced mortality,Rif^r APEC O78,14.28%
same,"reduction of APEC lesions severity (%), Air-sacs (airsacculitis)",Rif^r APEC O78; untreated control = 100%,-5.9%
same,"reduction of APEC lesions severity (%), Heart (pericarditis)",Rif^r APEC O78; untreated control = 100%,33.3%
same,"reduction of APEC lesions severity (%), Liver (perihepatitis)",Rif^r APEC O78; untreated control = 100%,-20%
same,"reduction of APEC load, Heart",Rif^r APEC O78,-1.8 log CFU/g of tissues
same,"reduction of APEC load, Kidney",Rif^r APEC O78,-1.1 log CFU/g of tissues
same,"reduction of APEC load, Liver",Rif^r APEC O78,-2.0 log CFU/g of tissues
same,"reduction of APEC load, Lung",Rif^r APEC O78,-1.4 log CFU/g of tissues
same,Body weight gain (BWG),Rif^r APEC O78,165.62±69.17
